Data as given in patent US12582654B2, “Cyano-substituted pyridine and cyano-substituted pyrimidine compound and preparation method therefor and application thereof” (BEIJING SCITECH-MQ PHARMACEUTICALS LIMITED, priority 2019, dated 2026).

How the values were obtained:
[1] = target: FGFR4 kinase (Homo sapiens, UniProt P22455); assay: Inhibition of FGFR4 kinase activity (ULight-labeled JAK-1 peptide, EU665/EU615 reading); assay type: biochemical; conditions: FGFR4 kinase 3.85 nM, ATP 100 μM, enzymatic reaction 2 hours
FGFR4 kinase, sequence (P22455 22-802): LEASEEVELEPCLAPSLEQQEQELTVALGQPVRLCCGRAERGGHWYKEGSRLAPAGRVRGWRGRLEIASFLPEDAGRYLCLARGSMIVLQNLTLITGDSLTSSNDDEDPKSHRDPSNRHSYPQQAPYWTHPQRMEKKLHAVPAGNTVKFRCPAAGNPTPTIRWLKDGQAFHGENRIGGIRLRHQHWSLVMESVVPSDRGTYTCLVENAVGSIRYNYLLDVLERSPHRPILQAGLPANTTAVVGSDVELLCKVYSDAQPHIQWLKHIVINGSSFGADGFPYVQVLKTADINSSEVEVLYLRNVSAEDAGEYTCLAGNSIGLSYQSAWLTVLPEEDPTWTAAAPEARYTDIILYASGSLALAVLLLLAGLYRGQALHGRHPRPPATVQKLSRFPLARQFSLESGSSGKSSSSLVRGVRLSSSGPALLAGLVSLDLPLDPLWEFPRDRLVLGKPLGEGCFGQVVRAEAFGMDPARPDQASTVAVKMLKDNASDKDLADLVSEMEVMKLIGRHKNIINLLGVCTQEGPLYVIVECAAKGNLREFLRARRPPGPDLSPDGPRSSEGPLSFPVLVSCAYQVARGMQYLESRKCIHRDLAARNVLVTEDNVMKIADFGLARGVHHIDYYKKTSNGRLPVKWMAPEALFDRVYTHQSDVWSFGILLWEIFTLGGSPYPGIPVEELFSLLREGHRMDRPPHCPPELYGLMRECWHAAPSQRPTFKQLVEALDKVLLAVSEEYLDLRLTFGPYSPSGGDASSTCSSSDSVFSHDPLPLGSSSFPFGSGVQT
Protocol: (§1) Assay of activity of small molecule compounds on inhibiting FGFR4 kinase and FGFR4 V550L mutant kinase. The assay method was as follows:
(§2) 1) Dilution of Compounds:
(§3) In a 96-well plate a, the compounds were serially diluted 3-fold with DMSO to form 11 concentrations, and the 12th concentration was pure DMSO (as a positive control); In a new 96-well plate b, the above solutions were diluted 25-fold with ultrapure water (DMSO concentration was 4%).
(§4) 2) Transferring Compounds to a 384-Well Plate:
(§5) The above solutions of compounds diluted with ultrapure water in the 96-well plate b were pipetted into corresponding wells of a 384-well plate.
(§6) 3) Adding 4× kinase solution: 2.5 μl of the above 4× kinase solutions were pipetted with a multi-channel pipette into corresponding reaction wells of the 384-well plate, and the mixture was mixed well and pre-reacted at room temperature for 5 minutes.
(§7) 4) Adding 2× substrate/ATP mixture: 5 μl of the above 2× substrate/ATP mixtures were pipetted with a multi-channel pipette into corresponding reaction wells of the 384-well plate.
(§8) 5) Negative control: negative control wells were set up in the 384-well plate by adding 2.5 μl of 4× substrate, 2.5 μl of 4× enzyme solution, 2.5 μl of 1× kinase Assay Buffer and 2.5 μl of ultrapure water containing 4% DMSO to each well.
(§9) 6) Centrifuging, mixing well, and reacting at room temperature in the dark for 2 hours.
(§10) 7) Terminating the Enzymatic Reaction:
(§11) 5 μl of the above 4× stop solutions were pipetted into corresponding wells of the 384-well plate, and the mixture was centrifuged, mixed well, and then reacted at room temperature for 5 minutes.
(§12) 8) Development of the Reaction:
(§13) 5 μl of the above 4× detection solutions were pipetted into corresponding wells of the 384-well plate, and the mixture was centrifuged, mixed well, and then reacted at room temperature for 1 hour.
(§14) 9) The 384-well plate was placed into a plate reader, and the signal was detected using the appropriate program.
(§15) 10) Analysis of IC50: Reading of well=10000*EU665 value/EU615 value Inhibition rate=(reading of positive control well−reading of assay well)/(reading of positive control well−reading of negative control well)*100%
(§16) The corresponding IC50 can be calculated by inputting the drug concentrations and corresponding inhibition rates into GraphPad Prism 5 and processing.
Assay Conditions for Screening FGFR4 Kinase Activity Inhibitory Molecule:
The final concentration of FGFR4 kinase in the reaction system was 3.85 nM, the final concentration of ATP was 100 μM, the final concentration of substrate ULight™-labeled JAK-1 (Tyr1023) Peptide was 100 nM, and the time for enzymatic reaction was 2 hours.
The highest final concentration of the compound in the reaction system was 2.5 μM. After serial 3-fold dilution, there were 11 concentrations in total, and the lowest final concentration was 0.042 nM. The final concentration of DMSO was 1%.

[2] = target: FGFR4 V550L kinase (Homo sapiens, UniProt P22455, V550L); assay: Inhibition of FGFR4 V550L mutant kinase activity (ULight-labeled PolyGT, EU665/EU615 reading); assay type: biochemical; conditions: FGFR4 V550L kinase 1 nM, ATP 10 μM, enzymatic reaction 2 hours
FGFR4 V550L kinase, sequence (P22455 22-802 V550L): as the sequence (P22455 22-802) above, with V529L counted along it
Protocol: as §1, §2, §3, §4, §5, §6, §7, §8, §9, §10, §11, §12, §13, §14, §15, §16
Assay Conditions for Screening FGFR4 V550L Kinase Activity Inhibitory Molecule:
The final concentration of FGFR4 V550L kinase in the reaction system was 1 nM, the final concentration of ATP was 10 μM, the final concentration of substrate ULight™-labeled PolyGT was 100 nM, and the time for enzymatic reaction was 2 hours.
The highest final concentration of the compound in the reaction system was 2.5 μM. After seral 3-fold dilution, there were 11 concentrations in total, and the lowest final concentration was 0.042 nM. The final concentration of DMSO was 1%.

[3] = target: T1, Ba/F3 ETV6-FGFR4 cells (Homo sapiens, UniProt P22455); assay: Inhibition of cell proliferation (CCK-8), Ba/F3 ETV6-FGFR4 cells; assay type: cell-based; conditions: 72 hours of incubation, read-out: Ba/F3 ETV6-FGFR4 IC50
T1 construct: fused on or other part: N-terminal part of ETV6 (TEL), the oligomerising partner that makes the FGFR4 kinase constitutively active; P41212 (Transcription factor ETV6)
T1 sequence (P22455 whole entry, change not shown, the tested form may be a part): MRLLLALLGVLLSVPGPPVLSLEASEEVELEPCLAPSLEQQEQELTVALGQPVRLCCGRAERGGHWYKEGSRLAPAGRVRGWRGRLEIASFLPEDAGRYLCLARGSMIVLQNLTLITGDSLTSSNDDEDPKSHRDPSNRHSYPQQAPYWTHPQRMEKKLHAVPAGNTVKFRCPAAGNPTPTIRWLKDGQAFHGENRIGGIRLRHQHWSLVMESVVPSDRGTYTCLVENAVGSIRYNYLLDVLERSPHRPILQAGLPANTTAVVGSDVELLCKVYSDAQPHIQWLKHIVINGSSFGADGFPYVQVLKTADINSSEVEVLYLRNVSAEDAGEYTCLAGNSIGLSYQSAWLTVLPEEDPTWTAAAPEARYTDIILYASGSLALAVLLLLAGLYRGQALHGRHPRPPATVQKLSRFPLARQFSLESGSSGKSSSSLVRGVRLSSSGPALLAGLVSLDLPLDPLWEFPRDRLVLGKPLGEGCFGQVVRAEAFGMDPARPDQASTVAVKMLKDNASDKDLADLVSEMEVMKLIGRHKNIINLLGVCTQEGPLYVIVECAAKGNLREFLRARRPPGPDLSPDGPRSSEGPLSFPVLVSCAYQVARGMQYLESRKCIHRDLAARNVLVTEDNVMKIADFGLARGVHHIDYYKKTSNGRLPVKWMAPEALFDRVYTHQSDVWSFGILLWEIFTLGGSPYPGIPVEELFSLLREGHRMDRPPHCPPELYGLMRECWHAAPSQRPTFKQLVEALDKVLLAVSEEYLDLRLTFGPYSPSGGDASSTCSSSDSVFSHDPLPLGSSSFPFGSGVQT
Protocol: (§17) Compounds were assayed for inhibiting cell proliferation, and the specific method was as follows: • 1. Cells were cultured to a logarithmic growth phase, pipetted evenly, transferred to a 15 mL centrifuge tube, and centrifuged at 1000 rpm at room temperature for 4 minutes; • 2. The supernatant was discarded; 5 mL of complete medium was added and pipetted evenly; 10 μL of cell suspension was weighed, mixed well with 10 μL of 0.4% trypan blue, and counted under a cell counter; the proportion of living cells was ensured to be above 90%; • 3. The cell suspension was seeded into a 96-well plate (80 μL of cell suspension per well) according to the conditions shown in Table 5; in the outer 36 wells of the 96-well plate, no cells were added but only sterile water was added; only the inner 60 wells were used for cell assay and control; • 4. 5× compound dilution: the compounds were serially diluted 4-fold to give a total of 9 concentrations; 80-fold overall dilution was completed with complete medium, the resulting concentration was 5 times the final drug concentration, and DMSO concentration was 1.25%; • 5. 20 μL of the corresponding compounds with different concentrations were added to each well of assay wells of the 96-well plate; 20 μL of complete medium was added to positive and negative control wells and shaken well; and the final concentration of DMSO in each well was 0.25%; • 6. After 72 hours of incubation, 10 μL of CCK-8 reagent was added to each well and further incubated at 37° C. for 1-2 hours; and the OD value was read at 450 nm; 7. Cell survival rate (%)=[(As−Ab)/(Ac−Ab)]*100% • As: Assay well (medium containing cells, CCK-8, compound) • Ac: Control well (medium containing cells, CCK-8) • Ab: Blank well (medium without cell and compound, CCK-8) • 8. The values were imported into Graphpad Prism 5 software for IC50 calculation.

[4] = target: T2, Ba/F3 ETV6-FGFR4-V550L cells (Homo sapiens, UniProt P22455, V550L, cells depend on it); assay: Inhibition of cell proliferation (CCK-8), Ba/F3 ETV6-FGFR4-V550L cells; assay type: cell-based; conditions: 72 hours of incubation, read-out: Ba/F3 ETV6-FGFR4-V550L IC50
T2 construct: fused on or other part: N-terminal part of ETV6 (TEL), the oligomerising partner of the fusion; already named as the first entry; P41212 (Transcription factor ETV6)
T2 sequence (P22455 whole entry V550L, the tested form may be a part): as the sequence (P22455 whole entry, change not shown, the tested form may be a part) above, with V550L counted along it
Protocol: as §17

| SMILES | IC50 [1] | IC50 [2] | GI50 [3] | GI50 [4] |
| --- | --- | --- | --- | --- |
| C=CC(=O)Nc1cc(N2CCN(C)CC2)ccc1Nc1ncc(C#N)c(Nc2ccccc2OC(C)C)n1 [Example 1, N-(2-((5-cyano-4-((2-isopropoxyphenyl)amino)pyrimidin-2-yl)amino)-5-(4-methylpiperazin-1-yl)phenyl)acrylamide] | 10 to 50 nM | ≤ 10 nM | ≤ 10 nM | ≤ 10 nM |
| C=CC(=O)Nc1cc(N2CCC(N(C)C)CC2)ccc1Nc1ncc(C#N)c(Nc2ccccc2OC(C)C)n1 [Example 2, N-(2-((5-cyano-4-((2-isopropoxyphenyl)amino)pyrimidin-2-yl)amino)-5-(4-(dimethylamino)piperidin-1-yl)phenyl) acrylamide] | 10 to 50 nM | ≤ 10 nM | ≤ 10 nM | ≤ 10 nM |
| C=CC(=O)Nc1cc(N2CCC(N3CCCC3)CC2)ccc1Nc1ncc(C#N)c(Nc2ccccc2OC(C)C)n1 [Example 3, N-(2-((5-cyano-4-((2-isopropoxyphenyl)amino)pyrimidin-2-yl)amino)-5-(4-(pyrrolidin-1-yl)piperidin-1-yl)phenyl) acrylamide] | 10 to 50 nM | ≤ 10 nM | ≤ 10 nM | ≤ 10 nM |
| C=CC(=O)Nc1cc(N2CCC(N3CCCCC3)CC2)ccc1Nc1ncc(C#N)c(Nc2ccccc2OC(C)C)n1 [Example 4, N-(5-([1,4′-bipiperidin]-1′-yl)-2-((5-cyano-4-((2-isopropoxyphenyl)amino)pyrimidin-2-yl)amino)phenyl) acrylamide] | 10 to 50 nM | ≤ 10 nM | ≤ 10 nM | ≤ 10 nM |
| C=CC(=O)Nc1cc(N2CCC(N3CCOCC3)CC2)ccc1Nc1ncc(C#N)c(Nc2ccccc2OC(C)C)n1 [Example 5, N-(2-((5-cyano-4-((2-isopropoxyphenyl)amino)pyrimidin-2-yl)amino)-5-(4-morpholinopiperidin-1-yl)phenyl) acrylamide] | 50 to 100 nM | 10 to 50 nM | ≤ 10 nM | ≤ 10 nM |
| C=CC(=O)Nc1cc(N2CCC(N3CCN(C)CC3)CC2)ccc1Nc1ncc(C#N)c(Nc2ccccc2OC(C)C)n1 [Example 6, N-(2-((5-cyano-4-((2-isopropoxyphenyl)amino)pyrimidin-2-yl)amino)-5-(4-(4-methylpiperazin-1-yl)piperidin-1-yl)phenyl) acrylamide] | ≤ 10 nM | ≤ 10 nM | ≤ 10 nM | ≤ 10 nM |
| C=CC(=O)Nc1cc(N2CCN(C)CC2)c(C)cc1Nc1ncc(C#N)c(Nc2ccccc2OC(C)C)n1 [Example 7, N-(2-((5-cyano-4-((2-isopropoxyphenyl)amino)pyrimidin-2-yl)amino)-4-methyl-5-(4-methylpiperazin-1-yl)phenyl) acrylamide] | 50 to 100 nM | 10 to 50 nM | ≤ 10 nM | 10 to 50 nM |
| C=CC(=O)Nc1cc(N2CCN(CC)CC2)c(C)cc1Nc1ncc(C#N)c(Nc2ccccc2OC(C)C)n1 [Example 8, N-(2-((5-cyano-4-((2-isopropoxyphenyl)amino)pyrimidin-2-yl)amino)-5-(4-ethylpiperazin-1-yl)-4-methylphenyl) acrylamide] | 10 to 50 nM | ≤ 10 nM | ≤ 10 nM | ≤ 10 nM |
| C=CC(=O)Nc1cc(N2CCC(N(C)C)CC2)c(C)cc1Nc1ncc(C#N)c(Nc2ccccc2OC(C)C)n1 [Example 9, N-(2-((5-cyano-4-((2-isopropoxyphenyl)amino)pyrimidin-2-yl)amino)-5-(4-(dimethylamino)piperidin-1-yl)-4-methylphenyl) acrylamide] | 10 to 50 nM | 10 to 50 nM | – | – |
| C=CC(=O)Nc1cc(N2CCC(N3CCCC3)CC2)c(C)cc1Nc1ncc(C#N)c(Nc2ccccc2OC(C)C)n1 [Example 10, N-(2-((5-cyano-4-((2-isopropoxyphenyl)amino)pyrimidin-2-yl)amino)-4-methyl-5-(4-(pyrrolidin-1-yl)piperidin-1-yl)phenyl) acrylamide] | 10 to 50 nM | 10 to 50 nM | ≤ 10 nM | 10 to 50 nM |
| C=CC(=O)Nc1cc(N2CCC(N3CCCCC3)CC2)c(C)cc1Nc1ncc(C#N)c(Nc2ccccc2OC(C)C)n1 [Example 11, N-(5-([1,4‘- bipiperidin]-1′-yl)-2-((5-cyano-4-((2-isopropoxyphenyl)amino)pyrimidin-2-yl)amino)-4-methylphenyl) acrylamide] | 10 to 50 nM | – | 10 to 50 nM | 10 to 50 nM |
| C=CC(=O)Nc1cc(N2CCC(N3CCOCC3)CC2)c(C)cc1Nc1ncc(C#N)c(Nc2ccccc2OC(C)C)n1 [Example 12, N-(2-((5-cyano-4-((2-isopropoxyphenyl)amino)pyrimidin-2-yl)amino)-4-methyl-5-(4-morpholinopiperidin-1-yl)phenyl) acrylamide] | 10 to 50 nM | 10 to 50 nM | – | – |
| C=CC(=O)Nc1cc(N2CCN(CC)CC2)ccc1Nc1ncc(C#N)c(Nc2ccc(C#N)cc2OC(C)C)n1 [Example 32, N-(2-((5-cyano-4-((4-cyano-2-isopropoxyphenyl)amino)pyrimidin-2-yl)amino)-5-(4-ethylpiperazin-1-yl)phenyl) acrylamide] | – | 10 to 50 nM | ≤ 10 nM | 10 to 50 nM |
| C=CC(=O)Nc1cc(N2CCC(N(C)C)CC2)ccc1Nc1cc(Nc2ccccc2OC(C)C)c(C#N)cn1 [Example 82, N-(2-((5-cyano-4-((2-isopropoxyphenyl)amino)pyridin-2-yl)amino)-5-(4-(dimethylamino)piperidin-1-yl)phenyl)acrylamide] | 10 to 50 nM | – | – | – |
| C=CC(=O)Nc1cc(N2CCC(N3CCN(C)CC3)CC2)ccc1Nc1cc(Nc2ccccc2OC(C)C)c(C#N)cn1 [Example 83, N-(2-((5-cyano-4-((2-isopropoxyphenyl)amino)pyridin-2-yl)amino)-5-(4-(4-methylpiperazin-1-yl)piperidin-1-yl)phenyl)acrylamide] | 10 to 50 nM | – | – | – |
| C=CC(=O)Nc1cc(N2CCN(CC)CC2)ccc1Nc1cc(Nc2ccccc2OC(C)C)c(C#N)cn1 [Example 84, N-(2-((5-cyano-4-((2-isopropoxyphenyl)amino)pyridin-2-yl)amino)-5-(4-ethylpiperazin-1-yl)phenyl)acrylamide] | 10 to 50 nM | – | – | – |
